Measured values: US20060079453A1, “Hla binding peptides and their uses” (priority 2002, published 2006)
No end group written: not given here.

Tests used:
Assay in all cases: biochemical
Format in all cases: binding
HLA-DR DRB1*0901 (DR9) = HLA-DR DRB1*0901 (DR9) (Homo sapiens, UniProt P01903+P01911, A100R/A103E/D57H/D86V/F55Y/F60I/F76Y/I96F/K127E/L162R/M171V/P40D/Q125H/Q99R/R33Q/R42F/S133A/S66N/T210M/V115G/W38K/Y107V/Y59G/Y89S); details: DRB1 *0901
HLA-DR DRB1*0405 (DR4) = HLA-DR DRB1*0405 (DR4) (Homo sapiens, UniProt P01903+P01911, A100R/A169T/D86S/F76Y/I96L/K127E/L162R/M171V/N62H/P40V/Q125Y/R42H/S133A/S149N/S66Y/V115G/V209L/W38E); details: DRB1 *0405
HLA-DR DRB1*1501 (DR15) = HLA-DR DRB1*1501 (DR15) (Homo sapiens, UniProt P01903+P01911); details: DRBI *1501
HLA-DR DRB1*1101 (DR11) = HLA-DR DRB1*1101 (DR11) (Homo sapiens, UniProt P01903+P01911, A100R/A169T/A87E/I96F/K41T/L162R/M171V/P40S/Q125H/Q178H/Q39Y/Q99D/R42S/S66Y/T262R/V115G/W38E); details: DRB1 *1101
HLA-DR DRB1*1302 (DR13) = HLA-DR DRB1*1302 (DR13) (Homo sapiens, UniProt P01903+P01911, A100E/A169T/K41T/L162R/M171V/P40S/Q125H/Q178H/Q39Y/Q99D/R42S/S66N/T262R/V115G/W38E/Y61H); details: DRBI *1302
HLA-DR DRB4*0101 (DR53) = HLA-DR DRB4*0101 (DR53) (Homo sapiens, UniProt P01903+P13762, G164S); details: DRB4 *0101
HLA-DR DRB1*0101 (DR1) = HLA-DR DRB1*0101 (DR1) (Homo sapiens, UniProt P01903+P01911, A100R/D57E/F55L/F60I/F76Y/I96L/L162R/M171V/P40L/Q125E/R42F/V115G/Y59C); details: DRB1 *0101
HLA-DR DRB1*0301 (DR3) = HLA-DR DRB1*0301 (DR3) (Homo sapiens, UniProt P01903+P01911, A100K/A102G/A103R/A169T/F55Y/I96L/K41T/L162R/M171V/P40S/Q125H/Q178H/Q39Y/R42S/S66N/T106N/T262R/W38E/Y61H)
HLA-DR DRB1*0401 (DR4) = HLA-DR DRB1*0401 (DR4) (Homo sapiens, UniProt P01903+P01911, A100K/A169T/F76Y/I96L/K127E/L162R/M171V/N62H/P40V/Q125Y/R42H/S133A/S149N/S66Y/V115G/V209L/W38E); details: DRB1 *0401
HLA-DR DRB5*0101 (DR51) = HLA-DR DRB5*0101 (DR51) (Homo sapiens, UniProt P01903+Q30154); details: DRB5 *0101
HLA-DR DRB1*0701 (DR7) = HLA-DR DRB1*0701 (DR7) (Homo sapiens, UniProt P01903+P01911, A100R/A102G/A103Q/D57E/D86V/E43K/F76Y/K127E/L162R/M171V/P40G/Q125H/Q99D/R33Q/R42Y/R54Q/S133A/S66F/T210M/V115G/Y107V/Y59L/Y89S); details: DRB1 *0701
HLA-DR DRB1*0802 (DR8) = HLA-DR DRB1*0802 (DR8) (Homo sapiens, UniProt P01903+P01911, A100R/A103L/A169T/F76Y/H45Y/I96F/K41T/L162R/M171V/P40S/Q125H/Q178H/Q39Y/Q99D/R218S/R42G/S66Y/V115G/W38E)

Sequence of HLA-DR DRB1*1302 (DR13) (P01903 26-254 limits assumed, other chains not shown): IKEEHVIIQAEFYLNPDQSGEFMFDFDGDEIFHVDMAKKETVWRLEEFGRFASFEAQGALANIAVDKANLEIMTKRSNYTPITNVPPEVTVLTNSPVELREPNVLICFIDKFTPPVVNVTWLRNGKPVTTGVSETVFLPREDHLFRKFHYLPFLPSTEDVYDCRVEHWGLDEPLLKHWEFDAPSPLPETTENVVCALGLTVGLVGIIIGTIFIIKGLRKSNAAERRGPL
Sequence of HLA-DR DRB1*0301 (DR3) (P01903 26-254 limits assumed, other chains not shown): as above
Sequence of HLA-DR DRB1*1101 (DR11) (P01903 26-254 limits assumed, other chains not shown): as above

With LKLVYRDDFPYAVCR the IC50 (HLA-DR DRB1*0901 (DR9)) was 18700 nM, the IC50 (HLA-DR DRB1*0405 (DR4)) was 830 nM and the IC50 (HLA-DR DRB1*1501 (DR15)) was 1880 nM. The IC50 (HLA-DR DRB1*1101 (DR11)) was 698 nM, the IC50 (HLA-DR DRB1*1302 (DR13)) was 699 nM and the IC50 (HLA-DR DRB4*0101 (DR53)) was 3830 nM. For the same sequence, the IC50 (HLA-DR DRB1*0101 (DR1)) was 778 nM, the IC50 (HLA-DR DRB1*0301 (DR3)) was 0.237 µM and the IC50 (HLA-DR DRB1*0401 (DR4)) was 123 nM. For the same sequence, the IC50 (HLA-DR DRB5*0101 (DR51)) was 9.16 µM and the IC50 (HLA-DR DRB1*0701 (DR7)) was 29000 nM.
Work on LQQLFLSTLSFVCPW yielded an IC50 (HLA-DR DRB1*0901 (DR9)) of 152 nM, an IC50 (HLA-DR DRB1*0405 (DR4)) of 94 nM and an IC50 (HLA-DR DRB1*1101 (DR11)) of 11700 nM. For the same sequence, the IC50 (HLA-DR DRB4*0101 (DR53)) was 22 nM, the IC50 (HLA-DR DRB1*0101 (DR1)) was 121 nM and the IC50 (HLA-DR DRB1*0301 (DR3)) was 2.04 µM. It also gave an IC50 (HLA-DR DRB5*0101 (DR51)) of 36.9 µM and an IC50 (HLA-DR DRB1*0701 (DR7)) of 272 nM.
Sequence LRTLQQMLLGTLQVV has an IC50 (HLA-DR DRB1*0901 (DR9)) of 5080 nM, an IC50 (HLA-DR DRB1*0405 (DR4)) of 79 nM and an IC50 (HLA-DR DRB1*1501 (DR15)) of 1700 nM. It also gave an IC50 (HLA-DR DRB1*1101 (DR11)) of 907 nM, an IC50 (HLA-DR DRB1*1302 (DR13)) of 616 nM and an IC50 (HLA-DR DRB4*0101 (DR53)) of 88 nM. It also gave an IC50 (HLA-DR DRB1*0101 (DR1)) of 80 nM, an IC50 (HLA-DR DRB1*0301 (DR3)) of over 3750 µM and an IC50 (HLA-DR DRB1*0401 (DR4)) of 437 nM. For the same sequence, the IC50 (HLA-DR DRB5*0101 (DR51)) was over 46.6 µM and the IC50 (HLA-DR DRB1*0701 (DR7)) was 6910 nM.
LRVVQQLLMGALTVT was tested, and the IC50 (HLA-DR DRB1*0901 (DR9)) was 204 nM, the IC50 (HLA-DR DRB1*0405 (DR4)) was 85 nM and the IC50 (HLA-DR DRB1*1501 (DR15)) was 56 nM. For the same sequence, the IC50 (HLA-DR DRB1*1302 (DR13)) was 8.9 nM, the IC50 (HLA-DR DRB4*0101 (DR53)) was 7.7 nM and the IC50 (HLA-DR DRB1*0101 (DR1)) was 5.7 nM. For the same sequence, the IC50 (HLA-DR DRB1*0301 (DR3)) was 21.7 µM and the IC50 (HLA-DR DRB1*0701 (DR7)) was 82 nM.
MKHILYISFYFILVN was tested, and the IC50 (HLA-DR DRB1*0405 (DR4)) was 3380 nM, the IC50 (HLA-DR DRB1*0802 (DR8)) was 15.6 µM and the IC50 (HLA-DR DRB1*0101 (DR1)) was 5890 nM. For the same sequence, the IC50 (HLA-DR DRB1*0401 (DR4)) was 189 nM and the IC50 (HLA-DR DRB5*0101 (DR51)) was over 9.52 µM.
With PVIKNSIKLRL the IC50 (HLA-DR DRB1*0901 (DR9)) was 2850 nM, the IC50 (HLA-DR DRB1*0405 (DR4)) was 278000 nM and the IC50 (HLA-DR DRB1*1501 (DR15)) was 2580 nM. The IC50 (HLA-DR DRB1*1101 (DR11)) was 2770 nM, the IC50 (HLA-DR DRB1*1302 (DR13)) was 77 nM and the IC50 (HLA-DR DRB4*0101 (DR53)) was 198 nM. The IC50 (HLA-DR DRB1*0101 (DR1)) was 1550 nM, the IC50 (HLA-DR DRB1*0301 (DR3)) was 0.198 µM and the IC50 (HLA-DR DRB1*0401 (DR4)) was 34200 nM. For the same sequence, the IC50 (HLA-DR DRB5*0101 (DR51)) was 1.04 µM and the IC50 (HLA-DR DRB1*0701 (DR7)) was 4090 nM.
Sequence RTSIRASLTFNRGFK has an IC50 (HLA-DR DRB1*0405 (DR4)) of 5130 nM, an IC50 (HLA-DR DRB1*1101 (DR11)) of 4810 nM and an IC50 (HLA-DR DRB1*0802 (DR8)) of 5.48 µM. It also gave an IC50 (HLA-DR DRB4*0101 (DR53)) of 79 nM, an IC50 (HLA-DR DRB1*0301 (DR3)) of 0.256 µM and an IC50 (HLA-DR DRB1*0401 (DR4)) of 770 nM. For the same sequence, the IC50 (HLA-DR DRB1*0701 (DR7)) was 411 nM.
RVIKNSIRLTL showed an IC50 (HLA-DR DRB1*0901 (DR9)) of 2570 nM, an IC50 (HLA-DR DRB1*0405 (DR4)) of 80700 nM and an IC50 (HLA-DR DRB1*1501 (DR15)) of 4320 nM. For the same sequence, the IC50 (HLA-DR DRB1*1101 (DR11)) was 1740 nM, the IC50 (HLA-DR DRB1*1302 (DR13)) was 32 nM and the IC50 (HLA-DR DRB1*0101 (DR1)) was 3650 nM. For the same sequence, the IC50 (HLA-DR DRB1*0301 (DR3)) was 0.584 µM, the IC50 (HLA-DR DRB1*0401 (DR4)) was 9250 nM and the IC50 (HLA-DR DRB5*0101 (DR51)) was 8.83 µM. For the same sequence, the IC50 (HLA-DR DRB1*0701 (DR7)) was 2240 nM.
VCLLFYSKVRKYRYY showed an IC50 (HLA-DR DRB1*0901 (DR9)) of 1800 nM, an IC50 (HLA-DR DRB1*0405 (DR4)) of 73 nM and an IC50 (HLA-DR DRB1*1501 (DR15)) of 61 nM. It also gave an IC50 (HLA-DR DRB1*1101 (DR11)) of 326 nM, an IC50 (HLA-DR DRB4*0101 (DR53)) of 2340 nM and an IC50 (HLA-DR DRB1*0101 (DR1)) of 960 nM. It also gave an IC50 (HLA-DR DRB1*0301 (DR3)) of 0.276 µM and an IC50 (HLA-DR DRB1*0701 (DR7)) of 258 nM.
For WAGLLLDTRTLEVQS, the IC50 (HLA-DR DRB1*0405 (DR4)) was 1240 nM, the IC50 (HLA-DR DRB1*1501 (DR15)) was 3470 nM and the IC50 (HLA-DR DRB1*1101 (DR11)) was 21000 nM. It also gave an IC50 (HLA-DR DRB1*0802 (DR8)) of over 61.2 µM, an IC50 (HLA-DR DRB1*1302 (DR13)) of 92 nM and an IC50 (HLA-DR DRB1*0101 (DR1)) of 2020 nM. It also gave an IC50 (HLA-DR DRB1*0301 (DR3)) of 0.022 µM, an IC50 (HLA-DR DRB1*0401 (DR4)) of 49 nM and an IC50 (HLA-DR DRB5*0101 (DR51)) of over 102 µM.
WYRYSVYGTTLEKLT gave an IC50 (HLA-DR DRB1*0901 (DR9)) of 284 nM, an IC50 (HLA-DR DRB1*0405 (DR4)) of 8.5 nM and an IC50 (HLA-DR DRB1*1501 (DR15)) of 421 nM. The IC50 (HLA-DR DRB1*1302 (DR13)) was 805 nM, the IC50 (HLA-DR DRB4*0101 (DR53)) was 1040 nM and the IC50 (HLA-DR DRB1*0101 (DR1)) was 163 nM. It also gave an IC50 (HLA-DR DRB1*0301 (DR3)) of 26.6 µM, an IC50 (HLA-DR DRB1*0401 (DR4)) of 249 nM and an IC50 (HLA-DR DRB5*0101 (DR51)) of 0.062 µM. The IC50 (HLA-DR DRB1*0701 (DR7)) was 107 nM.
Work on YGRILHYLKAKEDSH yielded an IC50 (HLA-DR DRB1*0405 (DR4)) of 23 nM, an IC50 (HLA-DR DRB1*0802 (DR8)) of 0.704 µM and an IC50 (HLA-DR DRB1*0101 (DR1)) of 30 nM. It also gave an IC50 (HLA-DR DRB1*0301 (DR3)) of 42.4 µM, an IC50 (HLA-DR DRB1*0401 (DR4)) of 2340 nM and an IC50 (HLA-DR DRB1*0701 (DR7)) of 900 nM.
